# Molecular target: tau (2N4R) (Homo sapiens, UniProt P10636)
# Experiment: arachidonic acid-induced tau aggregation, filter trap assay dose-response
# Format: biochemical
# Sequence of tau (2N4R) (P10636 1-441 isoform P10636-8): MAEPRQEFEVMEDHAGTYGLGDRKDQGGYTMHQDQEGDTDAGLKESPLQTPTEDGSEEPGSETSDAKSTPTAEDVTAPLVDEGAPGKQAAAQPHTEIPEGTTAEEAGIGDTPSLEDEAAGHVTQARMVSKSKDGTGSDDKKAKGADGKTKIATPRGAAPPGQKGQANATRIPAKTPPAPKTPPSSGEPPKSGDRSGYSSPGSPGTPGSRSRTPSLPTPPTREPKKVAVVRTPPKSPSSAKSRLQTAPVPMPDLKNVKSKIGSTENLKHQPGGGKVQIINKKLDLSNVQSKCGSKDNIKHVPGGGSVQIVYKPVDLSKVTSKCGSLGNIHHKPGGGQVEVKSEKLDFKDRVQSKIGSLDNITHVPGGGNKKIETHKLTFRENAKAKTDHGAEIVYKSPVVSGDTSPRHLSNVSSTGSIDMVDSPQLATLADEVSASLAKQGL
row,Compound,IC50
1,O=C1c2c(cc(CO)c(O)c2O)C(=O)c2c(O)c(O)cc(O)c21 [asperthecin],39 ± 2 µM
2,"O=C1c2cc(CO)cc(O)c2C(=O)c2c1cc(O)c(O)c2O [2,ω-dihydroxyemodin]",205 ± 28 µM
3,asperbenzaldehyde,177 ± 103 µM

# Source: publication PMC6442474 (Planta medica, 2014)
